This is an account of results in US7649002B2, “(3,5-dimethylpiperidin-1yl)(4-phenylpyrrolidin-3-yl)methanone derivatives as MCR4 agonists” (Pfizer Inc, priority 2004, dated 2010).

The target in assay [1] is T1, human MCR4 receptor (Homo sapiens, UniProt P32245).
T1 construct: expressed in transfected cells
The assay is described as follows: MCR4 improved functional assay (Protocol E): CHO-K1-MC4R-CRE-β-lactamase reporter. The assay is classed as cell-based. From the text: (ii) MCR5 Standard Functional Assay Methodology and MCR4 Improved Functional Assay Methodology [Assay Protocol D and E Respectively] […] These cell lines were engineered using protocols akin to those outlined by Zaccolo et al (Zaccolo, M., (2000) Nature, 2(1); 25-29). Compound-induced activation of the MCR5 or MCR4 receptors in these two cell lines stimulated the production, and intracellular accumulation, of the enzyme β-lactamase. The quantity of β-lactamase enzyme produced was directly proportional to the degree to which the test compound activated the MCR5 or MCR4 receptors present on these cells and was quantified using the P-lactamase gene reporter analysis kit that is commercially available from Invitrogen Life Technologies. An in-depth description of this technology and assay protocols are available from the Invitrogen web site (www.invitrogen.com). The protocol listed below provides a summary of that assay methodology. The quantity of β-lactamase enzyme produced by compound-induced activation of the MCR5 or MCR4 receptors expressed in these cell lines was quantified using a LjI Biosystems Analyst™ HT 96.384 plate reader set to excite at a wave length of 405 nm, and measure the energy emitted at wave lengths of 450 nm and 530 nm. Cellular responses were quantified by dividing the measured energy emitted at a wavelength of 450 nm by the measured energy emitted at a wavelength of 530 nm. […] CCF4-AM was dissolved in 100% DMSO to give a final solution concentration of 1 mM. This solution was termed Solution A. Probenecid was dissolved in 200 mM NaOH to give a final solution concentration of 200 mM. This solution was termed Solution D. Composition of the β-lactamase assay dye solution: for 1072 μL of assay dye solution combine: 12 μL of Solution A, 60 μL of Solution B, 925 μL of Solution C and 75 μL of Solution D. […] Cells were grown in T225 vent cap flasks containing 50 ml of growth medium and maintained in a cell incubator at a temperature of 37° C. and in an environment containing 5% CO2. The composition of the growth medium for the CHO-K1-MC5R-CRE-β-lactamase was 90% v/v DMEM supplemented with; Glutamax-1, 25 mM HEPES, 10% v/v foetal calf serum (FCS), 1 mM sodium pyruvate, 0.1 mM non essential amino acids and 800 μg/ml genetic in. For the CHO-K1-MC4R-CRE-β-lactamase this growth media was further supplemented with […] Zeocin. Cells were harvested when they reached 80-90% confluency by first removing the existing growth medium and then washing with PBS that had been pre-warmed to a temperature of 37° C. This PBS was then removed and 5 ml of cell dissociation fluid added to the flask. These cells were incubated for 5 minutes in a cell incubator set at a temperature of 37° C. and in an environment containing 5% CO2 to detach the cells. When cells were detached, pre-warmed growth media was added, the cells re-suspended and mixed gently to achieve a single cell suspension by pipetting. This cell suspension was then used for experimentation, or transferred into a new T225 flask to perpetuate the cell culture. […] For each assay the cell plates were then retuned to a cell incubator maintained at a temperature of 37° C. and in an environment containing 5% CO2 overnight before performing the assay on the second assay day. […] For the MCR4 improved functional assay methodology the solution of cyclohexamide was not added. Subsequently, 10 μL of the test compound solution was transferred to the assay plate. The assay plate was then transferred to a cell incubator, set at 37° C. and in an environment containing 5% CO2, and left for 4 hours for the MCR4 improved assay methodology, or 5 hours for the MCR5 standard assay methodology. After this incubation period the plate was removed from the incubator, 10 μL of the […] assay dye solution was added to each well and then the plate returned to the cell incubator.

For assay [2], the system named is spontaneous penile erection in the conscious rat. Description: Spontaneous penile erection in the conscious rat (telemetric intracavernosal pressure). The assay is classed as in vivo. As to conditions: for maximum effective dose: s.c. How it is done:
MCR4 in vivo data for the compound of Example 1 was assessed by selective activation of melanocortin MCR4 receptors using the methodology assessing spontaneous penile erection in the conscious rat.
Erectile responses were recorded by measuring intracavernosal pressure using a surgically implanted telemetric device (TA11PA-C40, 8 mm catheter, modified 3 mm tip, available from Data Sciences International Inc.). An increase in intracavernosal pressure is indicative of penile erection, as an increase in intracavernosal pressure is an essential hemodynamic event during the initiation and maintenance of penile erection. The specific details of the surgical procedures, data acquisition and analysis used herein to measure increases in intracavernosal pressure can be found in detail in Bernabe J., Rampin O., Sachs B. D., Giuliano F., “Intracavernous pressure during erection in rats: an integrative approach based on telemetric recording”, Am. J. Physiol. 1999 February; 276 (2 Pt 2):R441-9.
The test animals (rats) (during the dark cycle) were habituated for 18 hours before baseline assessment of erectile function. Prior to administration of the test agent the baseline erectile activity (B) was assessed for the vehicle for 10 minutes using telemetric recording of intracavernosal pressure. Following subcutaneous administration of the compound of Example 1 (in the same vehicle), penile erections were assessed (using telemetric recording of intracavernosal pressure) over 10 minute periods, at intervals of 30, 60, and 90 minutes post dosage.

The mark [3] stands for this setting: Protocols C or E, read-out: functional potency at the MC4 receptor (EC50).

pEC50: −log10 of the molar value. Where two headings read alike, the source gives them in different places.

T1 sequence (P32245 whole entry): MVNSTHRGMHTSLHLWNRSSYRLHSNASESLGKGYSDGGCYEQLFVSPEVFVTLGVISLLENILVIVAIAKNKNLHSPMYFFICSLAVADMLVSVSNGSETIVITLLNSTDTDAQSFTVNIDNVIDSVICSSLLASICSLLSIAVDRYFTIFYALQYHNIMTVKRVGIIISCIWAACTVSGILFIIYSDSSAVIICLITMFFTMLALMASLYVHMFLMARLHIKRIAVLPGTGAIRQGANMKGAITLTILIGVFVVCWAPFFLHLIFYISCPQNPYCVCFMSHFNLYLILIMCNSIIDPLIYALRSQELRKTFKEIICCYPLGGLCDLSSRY

What is called EC50 is the concentration needed to bring the measured effect to its halfway point. A lower EC50 goes with an effect from little substance. The pEC50 is −log10 of the EC50, conventionally taken in molar units. Consider `CC(C)N1C[C@@H](C(=O)N2C[C@@H](C)[C@](O)(c3ccccc3)[C@@H](C)C2)[C@H](c2ccc(F)cc2F)C1.Cl` [Example 6, (3R,4R,5S)-1-{[(3S,4R)-4-(2,4-Difluorophenyl)-1-isopropylpyrrolidin-3-yl]carbonyl}-3,5-dimethyl-4-phenylpiperidin-4-ol hydrochloride], for which the concentration for a half-maximal effect (EC50) in assay [1] (MCR4 EC50 (nM), Table 6) is 19 nM. The same compound gave a negative logarithm of the EC50 (pEC50) in assay [1] (functional potency at the MC4 receptor (EC50), Protocols C or E) greater than 7.30.
For `C[C@@H]1CN(C(=O)[C@@H]2CN(c3cccnn3)C[C@H]2c2ccc(F)cc2F)C[C@H](C)[C@@]1(O)c1ccccc1.Cl` [Example 35, (3R,4R,5S)-1-{[(3S,4R)-4-(2,4-difluorophenyl)-1-pyridazin-3-ylpyrrolidin-3-yl]carbonyl}-3,5-dimethyl-4-phenylpiperidin-4-ol hydrochloride], the pEC50 in assay [1] (setting [3]) is greater than 8.00; in assay [1] (Table 6, read-out: MCR4 EC50), 8.82.
Consider `C[C@@H]1CN(C(=O)[C@@H]2CN(C(C)(C)C)C[C@H]2c2ccc(F)cc2F)C[C@H](C)[C@@]1(O)c1ccccc1.Cl` [Example 5, (3R,4R,5S)-1-{[(3S,4R)-1-tert-Butyl-4-(2,4-difluorophenyl)pyrrolidin-3-yl]carbonyl}-3,5-dimethyl-4-phenylpiperidin-4-ol hydrochloride], for which the pEC50 in assay [1] (setting [3]) is greater than 8.00; in assay [1] (Table 6, read-out: MCR4 EC50), 8.02.
Taken in the same sequence, the figures for `C[C@@H]1CN(C(=O)[C@@H]2CNC[C@H]2c2ccc(F)cc2F)C[C@H](C)[C@@]1(O)c1ccc(F)cc1.Cl` [Example 12, (3R,4R,5S)-1-{[(3S,4R)-4-(2,4-difluorophenyl)pyrrolidin-3-yl]carbonyl}-4-(4-fluorophenyl)-3,5-dimethylpiperidin-4-ol hydrochloride] were greater than 6.82 and 7.12.
With `C[C@@H]1CN(C(=O)[C@@H]2CN(C(C)(C)C)C[C@H]2c2ccc(F)cc2F)C[C@H](C)[C@@]1(O)c1ccccc1` [Example 1, (3R,4R,5S)-1-{[(3S,4R)-1-tert-Butyl-4-(24-difluorophenyl)pyrrolidin-3-yl]carbonyl}-3,5-dimethyl-4-phenylpiperidin-4-ol], the pEC50 in assay [1] (setting [3]) is greater than 8.00. Besides, the maximum effective dose in assay [2] (additional, more detailed study, FIG. 2, conscious rat) was 10 µg/kg; in assay [2] (preliminary study, FIG. 1, conscious rat), 1 µg/kg. Also, the “erectile activity (number of erections over a 10 minute period) versus baseline (treatment vehicle)” value in assay [2] (additional, more detailed study, FIG. 2, starting 30 minutes post dosage, 1, 10 and 100 μg/kg s.c.) was “increases the erectile activity versus baseline erectile activity”. For the same compound, the “number of penile erections” value in assay [2] (conscious rat, subcutaneously (s.c.)) is “dose dependent increase in the number of penile erections”. Moreover, in assay [2] (preliminary study, FIG. 1, starting 60 minutes post dosage, 1, 10 and 100 μg/kg s.c.), the “erectile activity (number of erections over a 10 minute period) versus baseline” value is on record as “increases the erectile activity versus baseline erectile activity”.
For the compound `C[C@@H]1CN(C(=O)[C@@H]2CN(C(C)(C)C)C[C@H]2c2ccc(F)cc2F)C[C@H](C)[C@@]1(O)c1ccc(Cl)cc1.Cl` [Example 13, (3R,4R,5S)-1-{[(3S,4R)-1-tert-butyl-4-(2,4-difluorophenyl)pyrrolidin-3-yl]carbonyl}-4-(4-chlorophenyl)-3,5-dimethylpiperidin-4-ol hydrochloride], the negative-log EC50 (pEC50) is greater than 7.30 in assay [1] (setting [3]) and 7.57 in assay [1] (Table 6, read-out: MCR4 EC50).
As to `C[C@@H]1CN(C(=O)[C@@H]2CN(c3ccccn3)C[C@H]2c2ccc(F)cc2F)C[C@H](C)[C@@]1(O)c1ccccc1.Cl` [Example 31, (3R,4R,5S)-1-{[(3S,4R)-4-(2,4-difluorophenyl)-1-pyridin-2-ylpyrrolidin-3-yl]carbonyl}-3,5-dimethyl-4-phenylpiperidin-4-ol hydrochloride], the pEC50 in assay [1] (setting [3]) was greater than 8.00; in assay [1] (Table 6, read-out: MCR4 EC50), 8.44.
